Measured values taken from patent US5192766A, “N-acryloylpiperazine derivatives, their preparation and their use as PAF antagonists” (Sankyo Company, Limited, priority 1989, dated 1993).

Assays:
[1] = test system: PAF-induced hypotension; assay: Inhibition of PAF-induced hypotension; assay type: in vivo, Wistar-Imamichi rats; conditions: Rattus norvegicus, iv, 1 min; anesthetized rats; l-C16:0 PAF 10 ng/kg i.v.; test compound i.v. cumulatively, 1 min before PAF; read-out: Inhibitory effect ID50
Experimental: Inhibition of PAF-induced hypotension
The test animals used were Wistar-Imamichi rats, each weighing from 350 to 450 g, anesthetized with Inactin (90 mg/kd, intraperitoneally).
Blood pressure was continuously measured throughout the experiment through a cannula inserted into the femoral artery. Each drug sample to be tested was intravenously injected through a cannula inserted into the femoral vein.
At first, l-C16:0 PAF was injected intravenously in amounts of 10 ng/kg at each injection at intervals of 5 minutes until the degree of the hypotensive response became constant. Then, each drug sample to be treated was intravenously injected. After one minute, the same dose of PAF was administered again. The drug sample was cumulatively administered. From its inhibition rate against the PAF-induced hypotensive effect, the 50% inhibitive dose (ID50) was determined, and is regarded as an index of PAF-antagonist activity. For administration, the PAF was dissolved in physiological saline solution containing 0.25% w/v of bovine serum albumin (BSA). The compounds under test were dissolved in dimethylformamide for use.
CV-3988 is disclosed in U.S. Pat. No. 4,408,052, and is structurally related to PAF itself.
In this Table, the compounds of the invention are identified by the number of the foregoing Example in which they were prepared.

[2] = molecular target: T1, PAF-receptor (Oryctolagus cuniculus, UniProt G1TEI7); assay: Inhibitor effect on PAF-receptor binding; conditions: specific binding of ^3H-PAF; rabbit platelet PAF-receptor membrane fraction; read-out: Inhibition of receptor binding (IC50 M)
T1 construct: is regarded as a PAF-receptor membrane fraction; from tissue; host or cells: rabbit blood platelets (membrane fraction from sucrose density layers)
Source text: Inhibitor effect on PAF-receptor binding
Blood samples were drawn from the heart of a rabbit. 1 part by volume of each sample was mixed immediately with 1/9 part of 0.77M solution of disodium ethylenediaminetetraacetate. After a similar procedure to that described in Experiment 2, a precipitated blood platelet sample was obtained. This blood platelet sample was washed, and, after repeated freezing and thawing for cellular breakdown, it was laid on top of double layers consisting of […] and 1.5M sucrose solutions. By centrifugation at 63,500×G, for 2 hours at 4° C., the fraction obtained from the interface between the 0.25M and 1.5M sucrose solutions was collected and is regarded as a PAF-receptor membrane fraction. A receptor binding experiment was conducted according to a method very similar to that reported by Hwang et al. [San-Bao Hwang et al.: J. Biol. Chem. 260, 15639-15645 (1985)]. The specific binding of ^3 H-PAF was measured using a Wattman GF/C filter. A test compound was dissolved in dimethyl sulfoxide and diluted 100 fold with a buffer solution containing 0.5% bovine serum albumin. Nine parts by weight of the solution, for a receptor binding experiment, was mixed with one part of the test compound solution prepared above. The percent inhibition of the specific binding was plotted for a log concentration of the test compound, and the 50% inhibitory concentration (IC50) was calculated from the linear line connecting all the plotted points.

[3] = test system: blood platelet (PAF-induced aggregation); assay: Inhibitory effect in vitro against PAF-induced blood platelet aggregation; assay type: cell-based; conditions: Oryctolagus cuniculus, 5 min; rabbit platelet rich plasma; l-C16:0 PAF final 10^-8 ~3×10^-8 M; 5 min observation
Experimental: Inhibitory effect in vitro against PAF-induced blood platelet aggregation
Blood samples were drawn from a rabbit and one part by volume of each sample was immediately mixed with 1/9 part of a 3.8% w/v aqueous solution of sodium citrate. The samples were centrifuged at 150×G at room temperature for 15 minutes to obtain a platelet rich plasma (PRP) fraction from the upper layer. The remains were further centrifuged at 1,000×G for 15 minutes to obtain a platelet poor plasma (PPP) fraction from the upper layer. The PRP and PPP fractions were mixed appropriately, to obtain a sample in which the final count of blood platelets was adjusted to be 6×10^5 per ul. According to the method reported by Born et al. [G. V. R. Born et al.: J. Physiol. 62, 67-68 (1962)], blood platelet aggregation was determined by an increase in light transmission measured using an aggregometer. 3 ul of a solution of the test compound in dimethyl sulfoxide were added to 272 ul of PRP, and, after 1 minute, 25 ul of a physiological saline solution containing l-c16:0 PAF (at a final concentration of 10^-8 ~3×10^-8 M) were added. […] At the end of this value and the value of PAF-induced aggregation which was observed when dimethyl sulfoxide only was used without the addition of any test compound. IC50 values were calculated from the dose-response curve.

T1 sequence (G1TEI7 1-342): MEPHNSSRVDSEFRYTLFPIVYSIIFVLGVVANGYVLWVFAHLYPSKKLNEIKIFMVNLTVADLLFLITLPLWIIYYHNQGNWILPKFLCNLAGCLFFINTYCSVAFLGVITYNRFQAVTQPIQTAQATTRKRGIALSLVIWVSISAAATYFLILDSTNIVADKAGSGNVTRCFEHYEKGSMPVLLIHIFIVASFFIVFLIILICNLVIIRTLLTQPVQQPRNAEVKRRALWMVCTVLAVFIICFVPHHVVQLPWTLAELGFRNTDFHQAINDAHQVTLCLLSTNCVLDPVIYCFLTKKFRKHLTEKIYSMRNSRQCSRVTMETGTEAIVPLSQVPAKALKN

Row | IC50 [2] [nM] | IC50 [3] [nM] | Compound | ED50 [1] [µg/kg]
1 | 47 | 320 | COc1cc(C(=O)N2CCN(C(=O)C=C(c3ccccc3)c3ccccc3)CC2)cc(OC)c1OC [Example 1, 1-(3,3-Diphenylacryloyl)-4-(3,4,5-trimethoxybenzoyl)piperazine] | 57
2 | 47 | 260 | COc1cc(C(=O)N2CCN(C(=O)/C=C(/c3ccccc3)c3cccs3)CC2)cc(OC)c1OC [Example 5, 1-[(Z)-3-Phenyl-3-(2-thienyl)acryloyl]-4-(3,4,5-trimethoxybenzoyl)piperazin] | 54
3 | 170 | 67 | COc1cc(C(=O)N2CCN(C(=O)C=C(c3cccc(Cl)c3)c3cccc(Cl)c3)CC2)cc(OC)c1OC [Example 41, 1-[3,3-Bis(3-chlorophenyl)acryloyl]-4-(3,4,5-trimethoxybenzoyl)piperazine] | 7.1
4 | 20 |  | COc1ccc(/C(=C/C(=O)N2CCN(C(=O)c3cc(OC)c(OC)c(OC)c3)CC2)c2ccccc2Cl)cc1 [Example 42, 1-[(Z)-3-(2-chlorophenyl)-3-(4-methoxyphenyl)acryloyl]-4-(3,4,5-trimethoxybenzoyl)piperazine] | 5
5 | 13 |  | COc1cccc(/C(=C/C(=O)N2CCN(C(=O)c3cc(OC)c(OC)c(OC)c3)CC2)c2cccc(Cl)c2)c1 [Example 43, 1-[(Z)-3-(3-Chlorophenyl)-3-(3-methoxyphenyl)acryloyl]-4-(3,4,5-trimethoxybenzoyl)piperazine] | 4.4
6 | 15 |  | COc1cccc(/C(=C\C(=O)N2CCN(C(=O)c3cc(OC)c(OC)c(OC)c3)CC2)c2cccc(Cl)c2)c1 [Example 44, 1-[(E)-3-(3-Chlorophenyl)-3-(3-methoxyphenyl)acryloyl]-4-(3,4,5-trimethoxybenzoyl)piperazine] | 7.5
7 | 35 |  | COc1cc(C(=O)N2CCN(C(=O)C=C(c3cccc(C)c3)c3cccc(C)c3)CC2)cc(OC)c1OC [Example 56, 1-[3,3-Bis(3-Methylphenyl)acryloyl]-4-(3,4,5-trimethoxybenzoyl)piperazine] | 11
8 | 26 |  | COc1cccc(/C(=C/C(=O)N2CCN(C(=O)c3cc(OC)c(OC)c(OC)c3)CC2)c2ccccc2Cl)c1 [Example 72, 1-[(Z)-3-(3-Methoxyphenyl)-3-(2-chlorophenyl)acryloyl]-4-(3,4,5-trimethoxybenzoyl)piperazine] | 9.7
9 |  | 83 | CCCOc1cccc(/C(=C/C(=O)N2CCN(C(=O)c3cc(OC)c(OC)c(OC)c3)CC2)c2ccccc2)c1 [Example 76, 1-[(E)-3-(3-Propoxyphenyl)-3-phenylacryloyl]-4-(3,4,5-trimethoxybenzoyl)piperazine] | 9.2

Further lines, the compound ahead of its results:

Row | Compound | IC50 [2] [nM] | IC50 [3] [nM] | ED50 [1] [µg/kg]
10 | CCCCCCCCCCCCCCCCCCNC(=O)OCC(COP(=O)([O-])OCC[n+]1ccsc1)OC (racemic) [CV-3988, reference compound] | 1600 |  | 420
11 | COc1ccc(/C(=C/C(=O)N2CCN(C(=O)c3cc(OC)c(OC)c(OC)c3)CC2)c2ccc(Cl)c(Cl)c2)cc1 [Example 31, 1-[(Z)-3-(3,4-Dichlorophenyl)-3-(4-methoxyphenyl)acryloyl]-4-(3,4,5-trimethoxybenzoyl)piperazine] | 14 | 44 | 6.7
12 | COc1ccc(/C(=C/C(=O)N2CCN(C(=O)c3cc(OC)c(OC)c(OC)c3)CC2)c2cccc(Cl)c2)cc1 [Example 45, 1-[(Z)-3-(3-Chlorophenyl)-3-(4-methoxyphenyl)acryloyl]-4-(3,4,5-trimethoxybenzoyl)piperazine] | 16 | 39 | 6.6
13 | CCCOc1ccc(/C(=C/C(=O)N2CCN(C(=O)c3cc(OC)c(OC)c(OC)c3)CC2)c2ccc(Cl)c(Cl)c2)cc1 [Example 49, 1-[(Z)-3-(3,4-Dichlorophenyl)-3-(4-propoxyphenyl)acryloyl]-4-(3,4,5-trimethoxybenzoyl)piperazine] | 21 | 66 | 8
14 | COc1ccc(/C(=C/C(=O)N2CCN(C(=O)c3cc(OC)c(OC)c(OC)c3)CC2)c2cccc(C(F)(F)F)c2)cc1 [Example 75, 1-[(Z)-3-(4-Methoxyphenyl)-3-(3-trifluoromethylphenyl)acryloyl]-4-(3,4,5-trimethoxybenzoyl)piperazine] | 23 | 99 | 5.1
15 | COc1ccc(/C(=C/C(=O)N2CCN(C(=O)c3cc(OC)c(OC)c(OC)c3)CC2)c2cc(Cl)cc(Cl)c2)cc1 [Example 77, 1-[(Z)-3-(4-Methoxyphenyl)-3-(3,5-dichlorophenyl)acryloyl]-4-(3,4,5-trimethoxybenzoyl)piperazine] | 14 | 26 | 3.7
16 | COc1ccc(/C(=C/C(=O)N2CCN(C(=O)c3cc(OC)c(OC)c(OC)c3)CC2)c2ccc(Cl)cc2Cl)cc1 [Example 78, 1-[(Z)-3-(4-Methoxyphenyl)-3-(2,4-dichlorophenyl)acryloyl]-4-(3,4,5-trimethoxybenzoyl)piperazine] |  | 29 | 7.3
17 | COc1ccc(/C(=C/C(=O)N2CCN(C(=O)c3cc(OC)c(OC)c(OC)c3)CC2)c2cc(Cl)ccc2Cl)cc1 [Example 80, 1-[(Z)-3-(4-Methoxyphenyl)-3-(2,5-dichlorophenyl)acryloyl]-4-(3,4,5-trimethoxybenzoyl)piperazine] |  | 28 | 6.5
18 | COc1ccc(/C(=C/C(=O)N2CCN(C(=O)c3cc(OC)c(OC)c(OC)c3)CC2)c2cccc(Cl)c2Cl)cc1 [Example 81, 1-[(Z)-3-(4-Methoxyphenyl)-3-(2,3-dichlorophenyl)acryloyl]-4-(3,4,5-trimethoxybenzoyl)piperazine] | 32 | 31 | 
19 | COc1ccc(/C(=C/C(=O)N2CCN(C(=O)c3cc(OC)c(OC)c(OC)c3)CC2)c2cc(C)cc(C)c2)cc1 [Example 82, 1-[(Z)-3-(4-Methoxyphenyl)-3-(3,5-dimethylphenyl)acryloyl]-4-(3,4,5-trimethoxybenzoyl)piperazine] |  | 9.9 | 13
20 | CCc1ccc(/C(=C/C(=O)N2CCN(C(=O)c3cc(OC)c(OC)c(OC)c3)CC2)c2cccc(Cl)c2)cc1 [Example 83, 1-[(Z)-3-(4-Ethylphenyl)-3-(3-chlorophenyl)acryloyl]-4-(3,4,5-trimethoxybenzoyl)piperazine] | 14 |  | 11
21 | COc1ccc(/C(=C/C(=O)N2CCN(C(=O)c3cc(OC)c(OC)c(OC)c3)CC2)c2cc(C(F)(F)F)cc(C(F)(F)F)c2)cc1 [Example 84, 1-[(Z)-3-(4-Methoxyphenyl)-3-(3,5-di-trifluoromethylphenyl)acryloyl]-4-(3,4,5-trimethoxybenzoyl)piperazine] | 40 |  | 8.6
22 | CCOc1ccc(/C(=C/C(=O)N2CCN(C(=O)c3cc(OC)c(OC)c(OC)c3)CC2)c2cc(Cl)cc(Cl)c2)cc1 [Example 85, 1-[(Z)-3-(4-Ethoxyphenyl)-3-(3,5-dichlorophenyl)acryloyl]-4-(3,4,5-trimethoxybenzoyl)piperazine] | 20 |  | 6.1
